Measurements published in patent US20050245399A1, “Pyrazole derivatives as herbicidal compositions containing them” (ISHIHARA SANGYO KAISHA, LTD., priority 2004, published 2005).

Assays:
Format in all cases: in vivo
[1] = system: barnyardgrass (Echinochloa crus-galli L.), ECHCG; test: Test Example 2 post-emergence (foliage treatment) herbicidal activity, ECHCG; details: 63 g a.i./ha
Excerpt: (§1) Upland field soil was put into a 1/170,000 ha pot, and seeds of various plants were sown. Then, when the plants reached predetermined leaf stages {1. barnyardgrass (Echinochloa crus-galli L.), ECHCG: 1.1-2.1 leaf stage, 2. crabgrass (Digitaria sanguinalis L.), DIGSA: 1.0-2.0 leaf stage, 3. green foxtail (Setaria viridis L.), SETVI: 1.0-2.2 leaf stage, 4. redroot pigweed (Amaranthus retroflexus L.), AMARE: 0.1-1.5 leaf stage, 5. prickly sida (Sida spinosa L.), SIDSP: 0.1-0.6 leaf stage, 6. velvetleaf (Abutilon theophrasti), ABUTH: 0.1-0.6 leaf stage, 7. common cocklebur (Xanthium strumarium L.), XANST: 0.1 leaf stage, 8. rice (Oryza sativa L.), ORYSA; 1.0-2 leaf stage, 9. wheat (Triticum aestivum L.), TRZAX: 2.3-3.5 leaf stage, 10. corn (Zea mays L.), ZEAMXN 2.1-2.6 leaf stage, 11. soybean (Glycine max Merr.), GLXMA: primary leaf stage}, a wettable powder or emulsifiable concentrate having the compound of the present invention formulated in accordance with a usual formulation method, was weighed so that the active ingredient would be a predetermined amount, and diluted with water in an amount of 500 L/ha. To the diluted solution, 0.1% (v/v) of an agricultural spreader was added. The herbicide adjusted was applied by a small size sprayer for foliage treatment. On the 20th to 23rd day after the application of the herbicide, the growth of the respective plants was visually observed, and the herbicidal effects were evaluated by growth controlling degrees (%) ranging from 0 (equivalent to the untreated control) to 100 (complete kill), whereby the results shown in Table 5, were obtained. Compound Nos. in Table 5 correspond to Compound Nos. in Table 1 and 2 given hereinbefore.

[2] = system: prickly sida (Sida spinosa L.): SEDSP; test: Test Example 1 pre-emergence herbicidal activity, SIDSP; details: visually observed 20th to 23rd day after application
Excerpt: (§2) Upland field soil was put into a 1/170,000 ha pot, and seeds of various plants {1. barnyardgrass (Echinochloa crus-galli L.): ECHCG, 2. crabgrass (Digitaria sanguinalis L.): DIGSA, 3. green foxtail (Setaria viridis L.): SETVI, 4. redroot pigweed (Amaranthus retroflexus L.): AMARE, 5. prickly sida (Sida spinosa L.): SEDSP, 6. velvetleaf (Abutilon theophrasti): ABUTH, 7. common cocklebur (Xanthium strumarium L.): XANST, 8. rice (Oryza sativa L.): ORYSA, 9. wheat (Triticum aestivum L.): TRZAX, 10. corn (Zea mays L.): ZEAMX, 11. soybean (Glycine max Merr.): GLXMA} were sown. Then, one day after the sowing, a wettable powder or emulsifiable concentrate having the compound of the present invention formulated in accordance with a usual formulation method, was weighed so that the active ingredient would be a predetermined amount and diluted with water in an amount of 500 L/ha. The herbicide adjusted was applied by a small size sprayer for preemergence treatment. On the 20th to 23rd day after the application of the herbicide, the growth of the respective plants was visually observed, and the herbicidal effects were evaluated by growth controlling degrees (%) ranging from 0 (equivalent to the untreated control) to 100 (complete kill), whereby the results shown in Table 4, were obtained. Compound Nos. in Table 4 correspond to Compound Nos. in Table 1 and 2 given hereinbefore.

[3] = system: redroot pigweed (Amaranthus retroflexus L.), AMARE; test: Test Example 2 post-emergence (foliage treatment) herbicidal activity, AMARE; details: 63 g a.i./ha
Excerpt: as §1

[4] = system: soybean (Glycine max Merr.): GLXMA; test: Test Example 1 pre-emergence herbicidal activity, GLXMA; details: visually observed 20th to 23rd day after application
Excerpt: as §2

[5] = system: wheat (Triticum aestivum L.): TRZAX; test: Test Example 1 pre-emergence herbicidal activity, TRZAX; details: visually observed 20th to 23rd day after application
Excerpt: as §2

[6] = system: rice (Oryza sativa L.): ORYSA; test: Test Example 1 pre-emergence herbicidal activity, ORYSA; details: visually observed 20th to 23rd day after application
Excerpt: as §2

[7] = system: corn (Zea mays L.): ZEAMX; test: Test Example 1 pre-emergence herbicidal activity, ZEAMX; details: visually observed 20th to 23rd day after application
Excerpt: as §2

[8] = system: crabgrass (Digitaria sanguinalis L.), DIGSA; test: Test Example 2 post-emergence (foliage treatment) herbicidal activity, DIGSA; details: 63 g a.i./ha
Excerpt: as §1

[9] = system: crabgrass (Digitaria sanguinalis L.): DIGSA; test: Test Example 1 pre-emergence herbicidal activity, DIGSA; details: visually observed 20th to 23rd day after application
Excerpt: as §2

[10] = system: redroot pigweed (Amaranthus retroflexus L.): AMARE; test: Test Example 1 pre-emergence herbicidal activity, AMARE; details: Rate 63 g a.i./ha, visually observed 20th to 23rd day after application
Excerpt: as §2

[11] = system: wheat (Triticum aestivum L.), TRZAX; test: Test Example 2 post-emergence (foliage treatment) herbicidal activity, TRZAX; details: 63 g a.i./ha
Excerpt: as §1

[12] = system: green foxtail (Setaria viridis L.): SETVI; test: Test Example 1 pre-emergence herbicidal activity, SETVI; details: visually observed 20th to 23rd day after application
Excerpt: as §2

[13] = system: velvetleaf (Abutilon theophrasti), ABUTH; test: Test Example 2 post-emergence (foliage treatment) herbicidal activity, ABUTH; details: 63 g a.i./ha
Excerpt: as §1

[14] = system: velvetleaf (Abutilon theophrasti): ABUTH; test: Test Example 1 pre-emergence herbicidal activity, ABUTH; details: visually observed 20th to 23rd day after application
Excerpt: as §2

[15] = system: green foxtail (Setaria viridis L.), SETVI; test: Test Example 2 post-emergence (foliage treatment) herbicidal activity, SETVI; details: 63 g a.i./ha
Excerpt: as §1

[16] = system: rice (Oryza sativa L.), ORYSA; test: Test Example 2 post-emergence (foliage treatment) herbicidal activity, ORYSA; details: 63 g a.i./ha
Excerpt: as §1

[17] = system: barnyardgrass (Echinochloa crus-galli L.): ECHCG; test: Test Example 1 pre-emergence herbicidal activity, ECHCG; details: visually observed 20th to 23rd day after application
Excerpt: as §2

[18] = system: soybean (Glycine max Merr.), GLXMA; test: Test Example 2 post-emergence (foliage treatment) herbicidal activity, GLXMA; details: 63 g a.i./ha
Excerpt: as §1

[19] = system: corn (Zea mays L.), ZEAMX; test: Test Example 2 post-emergence (foliage treatment) herbicidal activity, ZEAMX; details: 63 g a.i./ha
Excerpt: as §1

| SMILES | growth controlling degree, ECHCO [1] [%] | Pre-emergence Herbicidal Activity SIDSP (growth controlling degree) ([2]; Rate 63 g a.i./ha) [%] | growth controlling degree, AMARE [3] [%] | Pre-emergence Herbicidal Activity GLXMA (growth controlling degree) ([4]; Rate 63 g a.i./ha) [%] | Pre-emergence Herbicidal Activity TRZAX (growth controlling degree) ([5]; Rate 63 g a.i./ha) [%] | Pre-emergence Herbicidal Activity ORYSA (growth controlling degree) ([6]; Rate 63 g a.i./ha) [%] | Pre-emergence Herbicidal Activity ZEAMX (growth controlling degree) ([7]; Rate 63 g a.i./ha) [%] | growth controlling degree, DIGSP [8] [%] | Pre-emergence Herbicidal Activity DIGSP (growth controlling degree) ([9]; Rate 63 g a.i./ha) [%] | Pre-emergence Herbicidal Activity AMARE (growth controlling degree) [10] [%] | growth controlling degree, TRZAX [11] [%] | Pre-emergence Herbicidal Activity SETVI (growth controlling degree) ([12]; Rate 63 g a.i./ha) [%] | growth controlling degree, ABUTH [13] [%] | Pre-emergence Herbicidal Activity ABUTH (growth controlling degree) ([14]; Rate 63 g a.i./ha) [%] | growth controlling degree, SETVI [15] [%] | growth controlling degree, ORYSA [16] [%] | Pre-emergence Herbicidal Activity ECHCG (growth controlling degree) ([17]; Rate 63 g a.i./ha) [%] | growth controlling degree, GLXMA [18] [%] | growth controlling degree, ZEAMX [19] [%] | further results |
| --- | --- | --- | --- | --- | --- | --- | --- | --- | --- | --- | --- | --- | --- | --- | --- | --- | --- | --- | --- | --- |
| COc1c(Cl)cc(F)c(-c2nn(C)c(OC(F)F)c2Cl)c1NC(=O)COCc1ccccc1 [Compound 1-45] | 95 | 0 | 100 | 0 | 10 | 30 | 0 | 70 | 90 | 100 | 40 | 40 | 100 | 30 | 90 | 80 | 0 | 60 | 40 | – |
| COc1c(Cl)cc(F)c(-c2nn(C)c(OC(F)F)c2Cl)c1NC(=O)c1ccc(F)cc1 [Compound 1-263] | 98 | 100 | 100 | 10 | 30 | 40 | 0 | 98 | 98 | 100 | 30 | 100 | 100 | 100 | 100 | 70 | 90 | 50 | 60 | – |
| COc1c(Cl)cc(F)c(-c2nn(C)c(OC(F)F)c2Cl)c1N(C=O)CCOc1ccccc1 [Compound 1-43] | 40 | – | 100 | – | – | – | – | 20 | – | – | 10 | – | 100 | – | 70 | 30 | – | 40 | 10 | Pre-emergence Herbicidal Activity SIDSP (growth controlling degree) ([2]; Rate 125 g a.i./ha): 0%; Pre-emergence Herbicidal Activity GLXMA (growth controlling degree) ([4]; Rate 125 g a.i./ha): 0%; Pre-emergence Herbicidal Activity TRZAX (growth controlling degree) ([5]; Rate 125 g a.i./ha): 0%; Pre-emergence Herbicidal Activity ORYSA (growth controlling degree) ([6]; Rate 125 g a.i./ha): 10%; Pre-emergence Herbicidal Activity ZEAMX (growth controlling degree) ([7]; Rate 125 g a.i./ha): 0%; Pre-emergence Herbicidal Activity DIGSP (growth controlling degree) ([9]; Rate 125 g a.i./ha): 10%; Pre-emergence Herbicidal Activity SETVI (growth controlling degree) ([12]; Rate 125 g a.i./ha): 0%; Pre-emergence Herbicidal Activity ABUTH (growth controlling degree) ([14]; Rate 125 g a.i./ha): 0%; Pre-emergence Herbicidal Activity ECHCG (growth controlling degree) ([17]; Rate 125 g a.i./ha): 0% |
